These results are taken from US20180000085A1, “USE OF PICOLINAMIDE COMPOUNDS WITH FUNGICIDAL ACTIVITY” (DOW AGROSCIENCES LLC, priority 2014, published 2018).

Assay type in all cases: in vivo
The subject of one experiment is Zymoseptoria tritici. Briefly: Leaf blotch of wheat (SEPTTR) disease control on wheat seedlings. To be noted: low volume application, 125.1 g/H.
Another experiment concerns Alternaria solani. As to the kind of experiment: Tomato early blight (ALTESO) disease control. The note with it: 100 ppm, 1 Day Protectant. As to the method: All fungicides were evaluated using the aforementioned method for their activity vs. all target diseases, unless stated otherwise. Wheat leaf blotch and brown rust activity were also evaluated using track spray applications, in which case the fungicides were formulated as EC formulations, containing 0.1% Trycol 5941 in the spray solutions. Wheat plants (variety Yuma) were grown from seed in a greenhouse in 50% mineral soil/50% soil-less Metro mix until the first leaf was fully emerged, with 7-10 seedlings per pot. These plants were inoculated with an aqueous spore suspension of Zymoseptoria tritici either prior to or after fungicide treatments. After inoculation the plants were kept in 100% relative humidity (one day in a dark dew chamber followed by two to three days in a lighted dew chamber at 20° C.) to permit spores to germinate and infect the leaf. The plants were then transferred to a greenhouse set at 20° C. for disease to develop. When disease symptoms were fully expressed on the 1st leaves of untreated plants, infection levels were assessed on a scale of 0 to 100 percent disease severity. Percent disease control was calculated using the ratio of disease severity on treated plants relative to untreated plants. Example J: Evaluation of Fungicidal Activity: Tomato Early Blight (Alternaria solani; Bayer Code […]) Tomato plants (variety Outdoor Girl) were propagated in soil-less Metro mix, with each pot having one plant, and used when 12 to 14 days old. Test plants were inoculated with an aqueous spore suspension of Alternaria solani 24 hr after fungicide treatments. After inoculation the plants were kept in a dew room at 22° C. with 100% relative humidity for 48 h to permit spores to germinate and infect the leaf. The plants were then transferred to a growth room at 22° C. for disease to develop. Fungicide formulation, application and disease assessment on the sprayed leaves followed the procedures as described in the Example A.

The next experiment concerns Puccinia triticina. Briefly: Wheat brown rust (PUCCRT) disease control on wheat seedlings. To be noted: low volume application, 125.1 g/H.

Take `COc1ccnc(C(=O)N[C@@H](C)C(=O)O[C@@H](C)[C@H](Oc2cccc(Cl)c2)C(C)C)c1OC(C)=O` [Cmpd 566]: the “SEPTTR 1DP, LV activity at 125.1 g/H (% Control rating)” value with Zymoseptoria tritici (1 Day Protectant) is recorded as “B (≤ 80)”. For the same compound, the “SEPTTR 3DC, LV activity at 125.1 g/H (% Control rating)” value with Zymoseptoria tritici (3 Day Curative) is on record as “A (> 80)”. For the same compound, in the experiment with Alternaria solani, the “ALTESO disease control, 1DP” value is “B (≤ 80)”. Also, in the experiment on Puccinia triticina (1 Day Protectant), the “PUCCRT 1DP, LV activity at 125.1 g/H (% Control rating)” value is listed as “A (> 80)”. In addition, the “PUCCRT 3DC, LV activity at 125.1 g/H (% Control rating)” value with Puccinia triticina (3 Day Curative) is given as “A (> 80)”.
